4 compounds from patent US20240158446A1, “CYCLIC COMPOUND HAVING SELECTIVE INHIBITORY ACTION ON KRAS OVER HRAS AND NRAS” (CHUGAI SEIYAKU KABUSHIKI KAISHA, priority 2021, published 2024) can be followed below.

Like-named read-outs stand apart in the source and are kept apart here. Where a SMILES comes first, the peptide text is derived from it. Bridges are numbered along the chain shown (N, C = ends). [ ]: non-standard residue; d: D form. The star is where a group is joined. hPhe(3-Cl-4-CF3) = N[C@@H](CCc1ccc(C(F)(F)F)c(Cl)c1)C(=O)O; NPrPhe(4-CF3) = CCCN[C@@H](Cc1ccc(C(F)(F)F)cc1)C(=O)O; NMeGly(cPent) = CN[C@H](C(=O)O)C1CCCC1; NMeD = CN[C@@H](CC(=O)O)C(=O)O; NMeNva = CCC[C@H](NC)C(=O)O; Morpholide = C1CN(*)CCO1; Ac4c = NC1(C(=O)O)CCC1; NPrGly = CCCNCC(=O)O; Sar = CNCC(=O)O

The test system of assay [1] is human lung cancer strain NCI-H441.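 Note: cell proliferation inhibition after four days measured by CellTiter-Glo.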
The target in assay [2] is GDP-bound NRAS wild-type protein (Homo sapiens, UniProt P01111). The experiment in a line: Binding to NRAS by surface plasmon resonance (SPR), Single Cycle Kinetics. The conditions noted are these: SPR; for NRAS/KRAS (ratio of KD value for NRAS to KD value for KRAS): GDP-bound NRAS wild-type protein vs GDP-bound KRAS wild-type protein.
Sequence of GDP-bound NRAS wild-type protein (P01111 whole entry): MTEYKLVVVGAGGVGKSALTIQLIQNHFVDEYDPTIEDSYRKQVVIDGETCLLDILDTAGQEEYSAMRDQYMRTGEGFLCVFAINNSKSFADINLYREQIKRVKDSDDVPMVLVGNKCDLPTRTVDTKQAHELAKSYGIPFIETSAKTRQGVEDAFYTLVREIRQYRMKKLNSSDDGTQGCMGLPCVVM
Assay [3] has as its target GDP-bound KRAS wild-type protein (Homo sapiens, UniProt P01116). The experiment in a line: Binding to KRAS by surface plasmon resonance (SPR), Single Cycle Kinetics. The conditions noted are these: SPR, Single Cycle Kinetics, GDP-bound KRAS wild-type protein; read-out: KRAS KD.
The target of assay [4] is GDP-bound HRAS wild-type protein (Homo sapiens, UniProt P01112). The experiment in a line: Binding to HRAS by surface plasmon resonance (SPR), Single Cycle Kinetics. The conditions noted are these: SPR; for HRAS/KRAS (ratio of KD value for HRAS to KD value for KRAS): GDP-bound HRAS wild-type protein vs GDP-bound KRAS wild-type protein. A general note: SPR reads the build-up and loss of mass on a sensor chip optically.
Sequence of GDP-bound HRAS wild-type protein (P01112 whole entry): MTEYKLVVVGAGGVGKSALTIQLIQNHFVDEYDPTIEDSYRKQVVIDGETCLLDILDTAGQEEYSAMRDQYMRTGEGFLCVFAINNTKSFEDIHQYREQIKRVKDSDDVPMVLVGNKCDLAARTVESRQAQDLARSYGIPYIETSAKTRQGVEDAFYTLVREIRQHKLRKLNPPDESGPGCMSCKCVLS

Sequence of GDP-bound KRAS wild-type protein (P01116 whole entry): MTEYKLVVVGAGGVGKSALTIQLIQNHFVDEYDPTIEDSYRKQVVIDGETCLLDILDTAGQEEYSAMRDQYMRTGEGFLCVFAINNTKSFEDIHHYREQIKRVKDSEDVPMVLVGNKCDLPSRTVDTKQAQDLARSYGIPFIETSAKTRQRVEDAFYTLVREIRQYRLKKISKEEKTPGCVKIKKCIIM

For orientation: IC50 means the point on the concentration scale where inhibition reaches its midpoint. In general, Kd refers to a measure of binding affinity in units of concentration. `CCO[C@@H]1C[C@H]2C(=O)NC3(CCC3)C(=O)N(C)[C@@H](C(CC)CC)C(=O)N(C)[C@H](C(=O)N(C)C)CC(=O)N(C)[C@@H](C)C(=O)N[C@@H]([C@@H](C)CC)C(=O)N(C)CC(=O)N(C)[C@H]3C/C=C\CCN(C3=O)[C@@H](Cc3ccc(C(F)(F)F)cc3)C(=O)N(C)CC(=O)N[C@@H](CCc3cc(F)c(C(F)(F)F)c(F)c3)C(=O)N2C1` [PP1199, (2S,8S,12R,14S,20S,23S,27S,30S,36S,38Z)-8-[2-[3,5-difluoro-4-(trifluoromethyl)phenyl]ethyl]-12-ethoxy-20-(1-ethylpropyl)-N,N,4,19,22,26,27,32,35-nonamethyl-30-[(1S)-1-methylpropyl]-3,6,9,15,18,21,25,28,31,34,42-undecaoxo-2-[[4-(trifluoromethyl)phenyl]methyl]spiro[1,4,7,10,16,19,22,26,29,32,35-undecazatricyclo[34.5.1.0^10,14]dotetracont-38-ene-17,1′-cyclobutane]-23-carboxamide] returned an IC50 in assay [1] of 39.1 nM. Moreover, in assay [2], the “NRAS/KRAS (ratio of KD value for NRAS to KD value for KRAS)” value is “A (a compound having 10 or more and less than 20 is denoted as A)”. The Kd in assay [3] was 0.17 nM. The “HRAS/KRAS (ratio of KD value for HRAS to KD value for KRAS)” value in assay [4] was “A (a compound having 10 or more and less than 20 is denoted as A)”.
In assay [1], `CCO[C@@H]1C[C@H]2C(=O)NC3(CCC3)C(=O)N(C)[C@@H](C3CCCC3)C(=O)N(C)[C@H](C(=O)N(C)C)CC(=O)N(C)[C@@H](COC)C(=O)N[C@@H]([C@@H](C)CC)C(=O)N(C)CC(=O)N(C)[C@H]3CCCCCN(C3=O)[C@@H](Cc3ccc(F)cc3)C(=O)N(C)CC(=O)N[C@@H](CCc3cc(F)c(C(F)(F)F)c(F)c3)C(=O)N2C1` [PP1193] registered an IC50 of 16.3 nM. Further, the “NRAS/KRAS (ratio of KD value for NRAS to KD value for KRAS)” value in assay [2] is “B (a compound having 3 or more and less than 10 is denoted as B)”. In addition, the Kd in assay [3] was found to be 0.07 nM. Also, the “HRAS/KRAS (ratio of KD value for HRAS to KD value for KRAS)” value in assay [4] is “B (a compound having 3 or more and less than 10 is denoted as B)”.
The compound `CCC[C@H]1C(=O)N[C@@H]([C@@H](C)CC)C(=O)N2CCC[C@H]2C(=O)N(C)[C@H]2C/C=C\CCN(C2=O)[C@@H](CC2CCC(F)(F)CC2)C(=O)N(C)CC(=O)N[C@@H](CCc2ccc(C(F)(F)F)c(OC)c2)C(=O)N2C[C@@H](C)C[C@H]2C(=O)N(C)C2(CCC2)C(=O)N(C)[C@@H](C2CCCC2)C(=O)N(C)[C@H](C(=O)N(C)C)CC(=O)N1C` [PP2380] showed an IC50 in assay [1] of 2.1 nM. The “NRAS/KRAS (ratio of KD value for NRAS to KD value for KRAS)” value in assay [2] was “A (a compound having 10 or more and less than 20 is denoted as A)”. In assay [3], the Kd was 0.85 nM. Moreover, the “HRAS/KRAS (ratio of KD value for HRAS to KD value for KRAS)” value in assay [4] was “A (a compound having 10 or more and less than 20 is denoted as A)”.
With `CCC[C@H]1C(=O)N[C@@H]([C@@H](C)CC)C(=O)N(C)CC(=O)N(CCC)CC(=O)N(CCC)[C@@H](Cc2ccc(C(F)(F)F)cc2)C(=O)N(C)CC(=O)N[C@@H](CCc2ccc(C(F)(F)F)c(Cl)c2)C(=O)N2CCC[C@H]2C(=O)NC2(CCC2)C(=O)N(C)[C@@H](C2CCCC2)C(=O)N(C)[C@H](C(=O)N2CCOCC2)CC(=O)N1C` [PP1949] ([NMeNva]I[Sar][NPrGly][NPrPhe(4-CF3)][Sar][hPhe(3-Cl-4-CF3)]P[Ac4c][NMeGly(cPent)][NMeD]-Morpholide; lactam N-11), the IC50 in assay [1] (read-out: NCI-H441 IC50, NCI-H441 cell proliferation, 4 days, CellTiter-Glo) came to 9.3 nM. For the same compound, the “NRAS/KRAS (KD ratio)” value in assay [2] (ratio of KD for GDP-bound NRAS wild-type protein to KD for KRAS) was “C (A compound having a KD ratio of 0.1 or more and less than 3 is denoted as C)”. Moreover, the Kd in assay [3] worked out at 0.92 nM. In addition, the “HRAS/KRAS (KD ratio)” value in assay [4] (ratio of KD for GDP-bound HRAS wild-type protein to KD for KRAS) is “C (A compound having a KD ratio of 0.1 or more and less than 3 is denoted as C)”.
